# Laboratory results published in patent US5235045A, “Non-azo naphthalimide dyes” (priority 1992, dated 1993).
# Read-outs that look alike come from different tables or passages of the source.
# Tests used:
# [1] = test system: Herpes simplex virus type 1; experiment: Effect of prior activation of Ed6Br with 420 nm light on HSV-1 (plaque assay); assay type: cell-based, MacIntyre strain; conditions: for log reduction at 25 µM / log reduction at 100 µM: Human alphaherpesvirus 1, 24 h, read-out: Log10 Reduction
# H9 cells = experiment: Take-up of Ed6Br by H9 cells; assay type: cell-based, human; conditions: for Cellular Ed6Br: 22° C.
# Procedure: H9 cells (an immortal human T-cell lymphoma) were cultured in RPMI-1640 medium containing 10% additional fetal calf serum held in air with a 5% CO2 atmosphere at 37.5° C. to a cell density in the range of 10^5 -10^7 per ml. Cells were harvested by centrifugation and four 3-milliliter aliquots containing 5×10^5 H9 cells per ml suspended in RPM I-1640 medium with 10% additional fetal calf serum were prepared. […] The fourth aliquot served as a dye-free control. Immediately after addition of the dyes, 1 ml samples were harvested from each aliquot and the cells washed by dilution into 3 ml phosphate buffered saline (pH 7.3), followed by two repetitions of centrifugation, decantation of the supernatant, and resuspension of the cell pellet in the buffered saline solution, and a final centrifugation, decantation, and retention of the cell pellet at 4° C. for subsequent analysis. At the subsequent elapsed incubation times at 1, 2, 3, and 4 hrs., one milliliter samples were harvested and treated in an identical fashion. After treatment of the 4-hr. sample, the cells of each sample were lysed in 3 ml of an 0.1% solution of ctyltetraammonium bromide detergent in phosphate buffered saline (pH=7.3). The fluorescence emission at 520 nm (420 nm excitation) of each sample was determined with a SLM SPT 500C spectrofluorometer. Additionally, the emission intensity of samples of these detergent solutions having, respectively, dye concentrations of […] were prepared as standards for calibrating the concentration dependence of the fluorescence emission.
# [2] = test system: Vesicular stomatitis Virus (Ogden strain) (VSV), G-protein; assay type: biochemical; conditions: 10.0 μM, 460 J/cm^2
# [3] = test system: Herpes simplex virus type 1; experiment: Effect of DiEd6Br and light on aqueous suspensions of HSV-1 (plaque assay); assay type: cell-based, MacIntyre strain
# [4] = Tissue bonding of swine dura mater with DiEd6Br and light
# Text: Bonding together of the overlapping surfaces of two strips of swine dura mater and of two thin slices of beef muscle with application of DiEd6Br in Cremophor EL as a carrier and irradiation with 420 # 5 nm light filtered from a xenon arc lamp were studied.
# Strips approximately 3×0.5 cm in dimension were cut from freshly harvested swine cranial dura mater, washed with 70% ethanol/water and blotted to dryness with standard chemical filter paper. External faces of each member of two pairs of strips were coated with a stock solution of Cremophor EL saturated at room temperature with DiEd6Br (approximately 2.5 millimolar), overlapped 1 cm with long axes parallel, and clamped between two Pyrex glass slides with edges of the slide-tissue-slide sandwich sealed with Parafilm. One sample was irradiated with 420 # 5 nm light of 25 mW/cm^2 irradiance for […]. at room temperature to give a total light fluence of approximately 1800 J/cm^2. The companion sample was wrapped in aluminum foil for light shielding and placed alongside the irradiated sample for the duration of the experiment.
# Following their respective irradiation or being held in the dark in similar temperature ambience, one end of a strip of each sample was clamped and from the other a Styrofoam container was hung by a clamp and fine suspension wires (weight of clamp plus container plus wires=33.3 gm). Weights (10 gm each) were added gently in a sequential fashion to give a total weight of 296.3 gm upon which the strip is separated at their interface within the overlapped region of the irradiated sample. Strips of the un-irradiated sample separated immediately at their interface under the 33.3 gm loading of the "weighing" container. […] Elongation was approximately 50% at shearing of the interface.
# [5] = 4 hr, external 25 mM (so in the source)
# [6] = 2 G-protein units or 1 G-protein + 2 M-protein units
smiles,measurement,setting,value
"CCCCCCNc1c(Br)cc2c3c(cccc13)C(=O)N(CCCCCC)C2=O [Compound VII, 3-bromo-4-(hexyl)amino-N-hexyl-1,8-naphthalimide]",PFU/ml,"[1]; 25 μM, prior activation +",8.4 × 10^3 PFU/ml
same,PFU/ml,"[1]; 25 μM, prior activation -",4.5 × 10^4 PFU/ml
same,PFU/ml,"[1]; 100 μM, prior activation +",3.0 × 10^1 PFU/ml
same,PFU/ml,"[1]; 100 μM, prior activation -",9.0 × 10^3 PFU/ml
same,log reduction at 25 µM,"[1]; 25 μM, prior activation +",1.51
same,log reduction at 25 µM,"[1]; 25 μM, prior activation -",0.78
same,log reduction at 100 µM,"[1]; 100 μM, prior activation +",3.95
same,log reduction at 100 µM,"[1]; 100 μM, prior activation -",1.48
same,kill of HSV-1,"[1]; as low as 100 mM, activated prior to addition to viral suspension",> 99.99%
same,average dye concentration in H9 cell,H9 cells; [5],about 1.92 millimolar
same,cellular over external concentration,H9 cells; [5],approximately 77 times
same,increased concentration of the dye by the cell,"H9 cells; 4 hr, external 1 and 5 mm (so in the source)",~70 fold
same,Cellular Ed6Br,"H9 cells; external 1 μM, 0 hr, 1 a° mol = 1 × 10^-18 mol",91.2 a° mol/cell
same,Cellular Ed6Br,"H9 cells; external 1 μM, 1 hr",130.2 a° mol/cell
same,Cellular Ed6Br,"H9 cells; external 1 μM, 2 hr",189.8 a° mol/cell
same,Cellular Ed6Br,"H9 cells; external 1 μM, 3 hr",186.0 a° mol/cell
same,Cellular Ed6Br,"H9 cells; external 1 μM, 4 hr",208.3 a° mol/cell
same,Cellular Ed6Br,"H9 cells; external 5 μM, 0 hr",165.6 a° mol/cell
same,Cellular Ed6Br,"H9 cells; external 5 μM, 1 hr",385.1 a° mol/cell
same,Cellular Ed6Br,"H9 cells; external 5 μM, 2 hr",437.2 a° mol/cell
same,Cellular Ed6Br,"H9 cells; external 5 μM, 3 hr",468.8 a° mol/cell
same,Cellular Ed6Br,"H9 cells; external 5 μM, 4 hr",548.9 a° mol/cell
same,Cellular Ed6Br,"H9 cells; external 25 μM, 0 hr",316.2 a° mol/cell
same,Cellular Ed6Br,"H9 cells; external 25 μM, 1 hr",716.3 a° mol/cell
same,Cellular Ed6Br,"H9 cells; external 25 μM, 2 hr",1073.4 a° mol/cell
same,Cellular Ed6Br,"H9 cells; external 25 μM, 3 hr",1689.3 a° mol/cell
same,Cellular Ed6Br,"H9 cells; external 25 μM, 4 hr",1748.8 a° mol/cell
CCCCCCN1C(=O)c2cccc3c(NCCNC(=O)CCCCC(=O)NCCNc4c(Br)cc5c6c(cccc46)C(=O)N(CCCCCC)C5=O)c(Br)cc(c23)C1=O [Compound XLIV],heavier bands,[2],many ill separated heavier bands merging together near
same,Inferred Crosslinked Species,[2]; [6],2 G-protein
same,"Inferred Crosslinked Species, Gel mw",[2]; [6],130 kD
same,PFU/ml,"[3]; 2.5 μM, not irradiated",1.3 × 10^6 PFU/ml
same,PFU/ml,"[3]; 10 μM, not irradiated",1.2 × 10^6 PFU/ml
same,PFU/ml,"[3]; .156 μM, not irradiated",1.1 × 10^6 PFU/ml
same,PFU/ml,"[3]; .625 μM, not irradiated",1.0 × 10^6 PFU/ml
same,log reduction at 2.5 µM,"[3]; Human alphaherpesvirus 1, light or radiation study, 2.5 μM, not irradiated, read-out: Log10 Reduction",0
same,log reduction at 10 µM,"[3]; Human alphaherpesvirus 1, light or radiation study, 10 μM, not irradiated, read-out: Log10 Reduction",0.0348
same,log reduction at 0.156 µM,"[3]; Human alphaherpesvirus 1, light or radiation study, .156 μM, not irradiated, read-out: Log10 Reduction",0.0725
same,log reduction at 0.625 µM,"[3]; Human alphaherpesvirus 1, light or radiation study, .625 μM, not irradiated, read-out: Log10 Reduction",0.114
same,log reduction at 2.5 µM,"[3]; Human alphaherpesvirus 1, light or radiation study, Test #1, 2.5 μM, 20 J/cm2, 420 nm, read-out: Log10 Reduction",6
same,log reduction at 10 µM,"[3]; Human alphaherpesvirus 1, light or radiation study, Test #1, 10 μM, 20 J/cm2, 420 nm, read-out: Log10 Reduction",6
same,log reduction at 0.156 µM,"[3]; Human alphaherpesvirus 1, light or radiation study, Test #1, .156 μM, 20 J/cm2, 420 nm, read-out: Log10 Reduction",6
same,log reduction at 0.625 µM,"[3]; Human alphaherpesvirus 1, light or radiation study, Test #1, .625 μM, 20 J/cm2, 420 nm, read-out: Log10 Reduction",6
same,log reduction at 0.0099 µM,"[3]; Human alphaherpesvirus 1, light or radiation study, Test #2, .0099 μM, 20 J/cm2, 420 nm, read-out: Log10 Reduction",3.27
same,log reduction at 0.0195 µM,"[3]; Human alphaherpesvirus 1, light or radiation study, Test #2, .0195 μM, 20 J/cm2, 420 nm, read-out: Log10 Reduction",4.24
same,log reduction at 0.039 µM,"[3]; Human alphaherpesvirus 1, light or radiation study, Test #2, .039 μM, 20 J/cm2, 420 nm, read-out: Log10 Reduction",4.87
same,log reduction at 0.078 µM,"[3]; Human alphaherpesvirus 1, light or radiation study, Test #2, .078 μM, 20 J/cm2, 420 nm, read-out: Log10 Reduction",5.87
same,log reduction at 0.156 µM,"[3]; Human alphaherpesvirus 1, light or radiation study, Test #2, .156 μM, 20 J/cm2, 420 nm, read-out: Log10 Reduction",5.87
same,PFU/ml,"[3]; Test #1, 2.5 μM, 20 J/cm2, 420 nm",0 PFU/ml
same,PFU/ml,"[3]; Test #1, 10 μM, 20 J/cm2, 420 nm",0 PFU/ml
same,PFU/ml,"[3]; Test #1, .156 μM, 20 J/cm2, 420 nm",0 PFU/ml
same,PFU/ml,"[3]; Test #1, .625 μM, 20 J/cm2, 420 nm",0 PFU/ml
same,PFU/ml,"[3]; Test #2, .0099 μM, 20 J/cm2, 420 nm",4.0 × 10^2 PFU/ml
same,PFU/ml,"[3]; Test #2, .0195 μM, 20 J/cm2, 420 nm",4.3 × 10^1 PFU/ml
same,PFU/ml,"[3]; Test #2, .039 μM, 20 J/cm2, 420 nm",9.9 × 10^0 PFU/ml
same,PFU/ml,"[3]; Test #2, .078 μM, 20 J/cm2, 420 nm",0 PFU/ml
same,PFU/ml,"[3]; Test #2, .156 μM, 20 J/cm2, 420 nm",0 PFU/ml
same,kill of HSV-1,"[3]; as low as 0.0195 mM, 420 nm, 2.5% or less of serum proteins",> 99.99%
same,deformation after separation,[4]; irradiated,no plastic deformation
same,elongation at shearing of the interface,[4]; irradiated,approximately 50%
same,total weight at separation of strips,"[4]; irradiated, approximately 1800 J/cm^2",296.3 gm
same,loading at which strips separated immediately,[4]; un-irradiated,≤ 33.3 gm
